The record followed here is patent publication US20160213635A1, “COMPOSITIONS USEFUL IN THE PREVENTION OR TREATMENT OF SKIN CANCER” (GIULIANI S.P.A., priority 2013, published 2016).

The subject of data set [1] is primary cultures of human keratinocytes, NHKs. The data set is described as follows: Cell viability after treatment with G01. As to conditions: eight different concentrations, 48±2 h, three NHKs cultures. It is filed as cell-based. Here is the method: The study is performed on primary cultures of human keratinocytes, NHKs. The cells (three different cultures of keratinocytesNHKs) were plated in the specific culture medium and maintained in culture for 24±2 h to allow adhesion to the plate. The cells were treated with eight different concentrations of the compound of the invention […] under evaluation, diluted in the culture medium, for 48±2 h. The values of cell viability for each concentration tested, resulting from the spectrophotometric reading, were compared with the value obtained from the control.

The subject of data set [2] is NHKs cells. The data set is described as follows: Western Blot assessment (non-cleaved caspase 3) of UV induced apoptosis after pre-treatment with G01. Type of data set: cell-based, human. As to conditions: pre-treatment 90 μM 24±2 h; UVA 25 J/cm^2, UVB 80 mJ/cm^2; 24 h. Here is the method: The NHKs cells were plated in the specific culture medium and maintained in culture for 24±2 h to allow adhesion to the plate. Each experimental condition was plated in duplicate. The cells were treated for 24±2 h with the compound G01, in a concentration of 90 μM. Subsequently, the cells identified as +UVA, +G01/UVA, +UVB, and +G01/UVB were respectively exposed, in the irradiation medium, to doses of UVA of 25 J/cm^2 and UVB of 80 mJ/cm^2, while the control plates and those treated only with G01 were maintained in the dark and at room temperature for a period of time equal to the irradiation time. The irradiation medium was then replaced with the culture medium. Based on the preliminary results obtained on a broader time range, a post-treatment time of 24 h was selected, after which the plates were processed for Western Blot protein determination. The protein expression of non-cleaved caspase 3 in each condition tested (treatment with G01 and/or UVA/UVB irradiation) was compared with the expression in the control cells (Ctr).

Data set [3] relates to NHKs cells. The data set is described as follows: ELISA CPDs determination after pre-treatment with G01 and subsequent UVB irradiation. It is filed as cell-based, human. As to conditions: pre-treatment 90 μM; UVB 80 mJ/cm^2; 6 h and 24 h. Here is the method:
The NHKs cells were plated in the specific culture medium and maintained in culture for 24±2 h to allow adhesion to the plate. Then, the keratinocytes were treated for 24±2 h with the compound G01, in a concentration of 90 μM. Subsequently, the plates identified as +UVB and +G01/UVB were exposed, in the irradiation medium, to a UVB dose of 80 mJ/cm^2, while the control plates (Ctr) and those treated only with the compound under examination (G01) were maintained in the dark and at room temperature for a period of time equal to the irradiation time. The irradiation medium was then replaced with the culture medium. Based on the preliminary results obtained on a broader time range, post-treatment times of 6 h and 24 h were selected, after which the plates were processed according to the procedure described in the work instruction specific for the DNA extraction. The determination of the pyrimidine cyclobutane dimers, CPDs, was performed using a specific ELISA kit following the procedure described in the user manual.
For orientation: An ELISA detects its analyte on a solid surface through an enzyme-linked reagent.

Data set [4] relates to primary cultures of human keratinocytes, NHKs. The data set is described as follows: Cell viability (incorporation of NR) after UV irradiation and subsequent treatment with G01. Type of data set: cell-based. As to conditions: post-treatment; UVA 10 J/cm^2, UVB 25 mJ/cm^2; particularly 48 h after irradiation; highest concentration tested 90 μM. The protocol:
The cells were plated in the specific culture medium and maintained in culture for 24±2 h to allow adhesion to the plate. The cells in the plates identified as +UVA and +UVB were respectively exposed, in the irradiation medium, to doses of UVA of 10 J/cm^2 and UVB of 25 mJ/cm^2, while the control plate (Ctr) was maintained in the dark and at room temperature for a period of time equal to the irradiation time. The irradiation medium was then replaced with the culture medium, containing the compound G01 in concentrations selected based on the cell viability results obtained after treatment with the same compound (see above). The cell viability was measured (incorporation of NR) at a time of 24±2 h and 48±2 h after the irradiation, in the absence and the presence of UVA/UVB irradiation and/or treatment with the compound of the invention G01. The cell viability values for each condition tested were compared with the value obtained from the control and plotted on a graph to highlight any differences between the various experimental conditions.

Data set [5] deals with NHKs cells. The data set is described as follows: ELISA CPDs determination after UVB irradiation and subsequent treatment with G01. It is filed as cell-based, human. As to conditions: post-treatment 90 μM; UVB 25 mJ/cm^2; 6 h and 24 h. The protocol: The NHKs cells were plated in the specific culture medium and maintained in culture for 24±2 h to allow adhesion to the plate. Then, the plates identified as +UVB and +G01/UVB were respectively exposed, in the irradiation medium, to a UVB dose of 25 mJ/cm^2, while the control plates (Ctr) and those treated only with the compound under examination (G01) were maintained in the dark and at room temperature for a period of time equal to the irradiation time. The irradiation medium was then replaced with the culture medium containing the compound G01, in a concentration of 90 μM. Based on the preliminary results obtained on a broader time range, post-treatment times of 6 h and 24 h were selected, after which the plates were processed according to the procedure described in the work instruction specific for the DNA extraction. The CPDs determination was performed using a specific ELISA kit following the procedure described in the user manual.

The subject of data set [6] is NHKs cells. As to the kind of experiment: Western Blot time course of p53, phospho-p53 and GADD45a after UVB irradiation and subsequent treatment with G01. Type of data set: cell-based, human. The following applies: post-treatment 90 μM. Here is the method:
The NHKs cells were plated in the specific culture medium and maintained in culture for 24±2 h to allow adhesion to the plate. Subsequently, the plates identified as +UVB and +G01/UVB post were exposed, in the irradiation medium, to a UVB dose of 25. mJ/cm^2. The irradiation medium was then replaced with the culture medium containing the compound of the invention G01, in a concentration of 90 μM. Post-treatment times of 1-3-6-24 h were selected, after which the plates were processed for Western Blot protein determination. The protein expression of p53, phospho-p53, and GADD45a after UVB irradiation and post-treatment with the compound of the invention G01 was compared with the expression in the control cells (Ctr).

Setting [7] is: UVB 25 mJ/cm^2, shorter times of 1-3-6-24 h.

For the molecule `C/C=C/C=C/C=C/C(=O)O` [G01, 2,4,6-trans-octatrienoic acid], in data set [1], the “cell viability (cellular toxicity) vs control” value was “absence of cellular toxicity”. For the same molecule, the “caspase 3 activation (protein expression of non-cleaved caspase 3)” value in data set [2] is on record as “reduce caspase 3 activation”. In data set [3], the “CPDs adducts (pyrimidine cyclobutane dimers)” value was “promote the removal of CPDs adducts”. Also, the “cell viability after UVA/UVB irradiation” value in data set [4] was “significant protective action”. Also, the “CPDs products (pyrimidine cyclobutane dimers)” value in data set [5] was “promote the removal of CPDs products”. The “expression of the markers of DNA damage” value in data set [6] (24 h after UVB irradiation 25 mJ/cm^2) is on record as “decrease in the expression”. For the same molecule, in data set [6] (setting [7]), the “levels of GADD45a” value was “acceleration of the increase”, the “levels of p53” value is “acceleration of the increase” and the “levels of phospho-p53” value is recorded as “acceleration of the increase”.
